Results on 7 compounds are retold here after US20240425478A1, “CYCLOPENTYLPYRAZOLE CDK2 INHIBITORS” (Genentech, Inc., priority 2021, published 2024).

pIC50, pKi: −log10 of the molar value. Where two headings read alike, the source gives them in different places. A value given as a limit tells only on which side of the number the result lay.

Assay [1] concerns OVISE (JCRB1043, CCNE1-amplified). Put plainly: OVISE EdU incorporation cell proliferation assay (CDK2-dependent). Type of assay: cell-based. To be noted: for pIC50: cellular assay, read-out: CDK2 OVISE IC50; for FS SKOV-3/OVISE: fold selectivity; for increased fold-selectivity SKOV-3/OVISE over Comparator C: (+) sign after FS SKOV-3/OVISE; for improvement in CDK2 OVISE cell potency over Comparator C: in brackets after OVISE IC50, Comparator C 5.5 μM. An outline of the steps:
(§1)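 EdU incorporation (0.5 μM final, last 8 h) follows a 16 h compound exposure at 37 °C, 5% CO2 in RPMI plus 10% FBS, 0.5% DMSO. After fixation, imaging scores EdU-positive cells; a 4-parameter logistic fit of that fraction gives IC50.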

Assay [2] concerns the target T1, Cyclin Dependent Kinase 2/Cyclin E1 (CDK2-cycE1) (Homo sapiens, UniProt P24941).
T1 construct: purchased ProQinase 0050-0055-1
Kind of assay: CDK2-cycE1 TR-FRET (LANCE) enzyme assay.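 For improvement in potency against CDK2 (Ki) over Comparator C: fold lower CDK2 Ki than comparator c (Ki 0.032 µM).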 To be noted: for pKi: enzymatic assay, read-out: CDK2 Ki; for FS CDK1/CDK2 / FS CDK4/CDK2: fold selectivity; for increased fold-selectivity CDK4/CDK2 over Comparator C: (+) sign after FS CDK4/CDK2. It counts as biochemical. In short, it runs like this:
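Kinase reaction buffer: 50 mM HEPES pH 7.5, 10 mM MgCl2, 2 mM TCEP, 0.05% BGG, 0.01% Brij 35, with 30 min compound–enzyme pre-incubation.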

Assay [3] has as its target T2, Cyclin Dependent Kinase 1/Cyclin A2 (CDK1-cycA2) (Homo sapiens, UniProt P06493).
T2 construct: purchased ProQinase 0134-0054-1
Kind of assay: CDK1-cycA2 TR-FRET (Lance) enzyme assay. It counts as biochemical. To be noted: Table O, enzymatic assay. In short, it runs like this:
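TR-FRET (Lance) detection of phospho-4E-BP1 with a europium-labelled antibody after EDTA quench (15 mM final); signal taken as acceptor/donor ratio. Enzyme and compound were pre-incubated 30 min in HEPES pH 7.5 buffer with MgCl2, TCEP, BGG and Brij 35. Ki derived by Morrison fit.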
Background: TR-FRET usually uses a lanthanide donor and a delayed reading to cut background.

The test system of a further assay is SKOV-3 (ATCC HTB-77). Put plainly: SKOV-3 EdU incorporation cell proliferation assay (CDK4/6-dependent). It counts as cell-based. To be noted: Homo sapiens, cellular assay, read-out: CDK4/6 SKOV-3 IC50. In short, it runs like this: as §1
The target in assay [4] is T3, Cyclin Dependent Kinase 4/Cyclin D3 (CDK4-cycD3) (Homo sapiens, UniProt P11802).
T3 construct: purchased Carna Biosciences 04-105
Put plainly: CDK4-cycD3 TR-FRET (LANCE) enzyme assay. Type of assay: biochemical. To be noted: Table O, enzymatic assay. An outline of the steps: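 Compound dose responses pre-incubated 30 min with enzyme mix in 50 mM HEPES pH 7.5, 10 mM MgCl2, 2 mM TCEP, 0.05% BGG, 0.01% Brij 35. Reaction quenched with EDTA (15 mM final); Eu-anti-phospho-4E-BP1 TR-FRET detection, acceptor/donor ratio. Ki derived by Morrison equation.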

[5] abbreviates: Table O, cellular SKOV-3 IC50 over OVISE IC50.
The mark [6] stands for this setting: Table O, enzymatic CDK1 Ki over CDK2 Ki.
[7] abbreviates: Table O, enzymatic CDK4 Ki over CDK2 Ki.

T2 sequence (P06493 whole entry): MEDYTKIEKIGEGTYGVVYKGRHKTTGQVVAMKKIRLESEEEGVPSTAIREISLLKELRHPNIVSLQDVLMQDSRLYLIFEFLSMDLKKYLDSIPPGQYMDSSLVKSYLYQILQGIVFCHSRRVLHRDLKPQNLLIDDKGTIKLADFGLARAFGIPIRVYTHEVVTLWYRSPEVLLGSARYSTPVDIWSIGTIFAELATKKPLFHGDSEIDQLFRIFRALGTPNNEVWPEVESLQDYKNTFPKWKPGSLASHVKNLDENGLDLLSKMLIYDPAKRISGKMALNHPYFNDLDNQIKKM
T2 sequence (P20248 whole entry partner): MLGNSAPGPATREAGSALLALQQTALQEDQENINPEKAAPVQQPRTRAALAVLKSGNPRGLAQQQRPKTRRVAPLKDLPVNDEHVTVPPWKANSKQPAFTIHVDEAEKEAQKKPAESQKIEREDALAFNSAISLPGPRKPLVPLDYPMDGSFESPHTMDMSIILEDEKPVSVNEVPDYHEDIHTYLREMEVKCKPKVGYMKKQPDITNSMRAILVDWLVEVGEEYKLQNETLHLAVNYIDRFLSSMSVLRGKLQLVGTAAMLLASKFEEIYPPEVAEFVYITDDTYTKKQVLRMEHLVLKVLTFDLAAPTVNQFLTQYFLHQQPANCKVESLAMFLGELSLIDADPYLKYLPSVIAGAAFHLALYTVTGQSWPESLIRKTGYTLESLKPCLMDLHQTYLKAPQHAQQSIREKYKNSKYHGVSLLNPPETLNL
T3 sequence (P11802 whole entry): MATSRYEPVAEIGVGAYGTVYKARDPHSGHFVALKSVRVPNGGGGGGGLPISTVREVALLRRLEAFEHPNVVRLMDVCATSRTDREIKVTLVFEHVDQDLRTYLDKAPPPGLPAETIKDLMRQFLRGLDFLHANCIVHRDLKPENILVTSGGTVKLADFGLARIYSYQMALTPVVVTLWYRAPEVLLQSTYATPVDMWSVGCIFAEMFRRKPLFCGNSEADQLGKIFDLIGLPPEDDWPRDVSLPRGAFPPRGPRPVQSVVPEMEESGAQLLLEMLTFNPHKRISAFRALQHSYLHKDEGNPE
T3 sequence (P30281 whole entry partner): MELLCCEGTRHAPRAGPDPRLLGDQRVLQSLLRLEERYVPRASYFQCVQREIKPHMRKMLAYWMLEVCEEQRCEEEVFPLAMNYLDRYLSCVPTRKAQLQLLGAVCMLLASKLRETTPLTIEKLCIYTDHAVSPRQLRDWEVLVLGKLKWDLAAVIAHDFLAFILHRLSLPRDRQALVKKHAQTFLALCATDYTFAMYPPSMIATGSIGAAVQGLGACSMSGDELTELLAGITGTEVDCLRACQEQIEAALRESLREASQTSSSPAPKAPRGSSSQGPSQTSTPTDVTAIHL

As usually defined, the pKi is −log10 of the Ki, conventionally taken in molar units. As for `Cc1cc(Nc2cc([C@H]3CC[C@@H](OC(=O)NC45CC(C4)C5)C3)[nH]n2)c(C)nn1` [Example 9D, (1R,3S)-3-(3-((3,6-dimethylpyridazin-4-yl)amino)-1H-pyrazol-5-yl)cyclopentyl bicyclo[1.1.1]pentan-1-ylcarbamate], the pIC50 in assay [1] (Table O) was 5.30; in the assay with SKOV-3 (ATCC HTB-77) (SK-OV-3, Table O), < 4.70. Besides, the “FS SKOV-3/OVISE” value in assay [1] (setting [5]) is given as >4. Moreover, the negative-log Ki (pKi) is 7.92 in assay [2] (Table O), 6.47 in assay [3] and 5.22 in assay [4]. Besides, the “FS CDK1/CDK2” value in assay [2] (setting [6]) turned out to be 28. In assay [2] (setting [7]), the “FS CDK4/CDK2” value amounted to 500.
With `COc1ncc(Nc2cc([C@H]3CC[C@@H](OC(=O)NC(C)C)C3)[nH]n2)c(C)n1` [Example 2X, (1R,3S)-3-(3-((2-methoxy-4-methylpyrimidin-5-yl)amino)-1H-pyrazol-5-yl)cyclopenty1 isopropylcarbamate], the pIC50 in assay [1] (Table O) was 5.55; in the assay with SKOV-3 (ATCC HTB-77) (SK-OV-3, Table O) it was < 4.70; in the assay with SKOV-3 (ATCC HTB-77) (SK-OV-3, Table Q), < 4.70. In addition, the “FS SKOV-3/OVISE” value in assay [1] (setting [5]) is >7.1; in assay [1] (Table Q, cellular), > 7.1. The “increased fold-selectivity SKOV-3/OVISE over Comparator C” value in assay [1] (Table Q) is reported as “(+) (The (+) sign in Table Q signifies desirable increased fold-selectivity of the exemplary compounds over Comparator C)”. Further, the “improvement in CDK2 OVISE cell potency over Comparator C” value in assay [1] (Table Q) was 2 fold. Also, the “improvement in potency against CDK2 (Ki) over Comparator C” value (“improvement … (Ki) over Comparator C” below) in assay [2] amounted to 0.5 fold. The pKi in assay [2] (Table O) is 7.23; in assay [2] (Table Q), 7.23; in assay [3], 5.92; in assay [4], 5.42. Further, the “FS CDK1/CDK2” value is 20 in assay [2] (setting [6]) and 20 in assay [2] (Table Q, enzymatic). For the same compound, the “FS CDK4/CDK2” value is reported as 64 in assay [2] (setting [7]) and 64 in assay [2] (Table Q, enzymatic). For the same compound, in assay [2] (Table Q), the “increased fold-selectivity CDK4/CDK2 over Comparator C” value is on record as “(+) (The (+) sign in Table Q signifies desirable increased fold-selectivity of the exemplary compounds over Comparator C)”.
On to `CC(C)NC(=O)O[C@@H]1CC[C@H](c2cc(Nc3ccc(-n4cccn4)cn3)n[nH]2)C1` [Example 2DD, (1R,3S)-3-(3-((5-(1H-pyrazol-1-yl)pyridin-2-yl)amino)-1H-pyrazol-5-yl)cyclopentyl isopropylcarbamate], for which the pIC50 was 6.21 in assay [1] (Table O); < 4.70 in the assay on SKOV-3 (ATCC HTB-77) (SK-OV-3, Table O); 4.85 in the assay on SKOV-3 (ATCC HTB-77) (SK-OV-3, Table Q). In addition, the “FS SKOV-3/OVISE” value stood at 23 in assay [1] (setting [5]) and 23 in assay [1] (Table Q, cellular). Also, the “increased fold-selectivity SKOV-3/OVISE over Comparator C” value in assay [1] (Table Q) is given as “(+) (The (+) sign in Table Q signifies desirable increased fold-selectivity of the exemplary compounds over Comparator C)”. The “improvement in CDK2 OVISE cell potency over Comparator C” value in assay [1] (Table Q) is on record as 9 fold. The “improvement … (Ki) over Comparator C” value in assay [2] came out at 2.5 fold. Also, the pKi is 7.89 in assay [2] (Table O), 7.89 in assay [2] (Table Q), 6.17 in assay [3] and 6.46 in assay [4]. Further, the “FS CDK1/CDK2” value in assay [2] (setting [6]) turned out to be 52; in assay [2] (Table Q, enzymatic), 52. In addition, the “FS CDK4/CDK2” value in assay [2] (setting [7]) was determined as 27; in assay [2] (Table Q, enzymatic), 27. The “increased fold-selectivity CDK1/CDK2 over Comparator C” value in assay [2] (Table Q, (+) sign after FS CDK1/CDK2) is reported as “(+) (The (+) sign in Table Q signifies desirable increased fold-selectivity of the exemplary compounds over Comparator C)”. Moreover, the “increased fold-selectivity CDK4/CDK2 over Comparator C” value in assay [2] (Table Q) is “(+) (The (+) sign in Table Q signifies desirable increased fold-selectivity of the exemplary compounds over Comparator C)”.
`CC(C)NC(=O)O[C@@H]1CC[C@H](c2cc(Nc3ccc(-n4ccnc4)nc3)n[nH]2)C1` [Example 2J, (1R,3S)-3-(3-((6-(1H-imidazol-1-yl)pyridin-3-yl)amino)-1H-pyrazol-5-yl)cyclopentyl isopropylcarbamate]: the pIC50 in assay [1] (Table O) was 6.36; with SKOV-3 (ATCC HTB-77) (SK-OV-3, Table O), 4.96. For the same compound, the “FS SKOV-3/OVISE” value in assay [1] (setting [5]) was found to be 25. Further, the values for the pKi in assay [2] (Table O), in assay [3] and in assay [4] were 8.00, 6.70 and 6.64, respectively. Also, the “FS CDK1/CDK2” value in assay [2] (setting [6]) is reported as 20. Further, in assay [2] (setting [7]), the “FS CDK4/CDK2” value came out at 23.
For `CC(C)NC(=O)O[C@@H]1CC[C@H](c2cc(Nc3cccn(C)c3=O)n[nH]2)C1` [Example 2BB, (1R,3S)-3-(3-((1-methyl-2-oxo-1,2-dihydropyridin-3-yl)amino)-1H-pyrazol-5-y1)cyclopenty1 isopropylcarbamate], the pIC50 in assay [1] (Table O) was < 4.70; in assay [1] (Table Q), < 4.70; in the assay with SKOV-3 (ATCC HTB-77) (SK-OV-3, Table O), < 4.70; in the assay with SKOV-3 (ATCC HTB-77) (SK-OV-3, Table Q), < 4.70. Besides, the “FS SKOV-3/OVISE” value in assay [1] (setting [5]) stood at 1.0; in assay [1] (Table Q, cellular), 1.0. Further, the “improvement in CDK2 OVISE cell potency over Comparator C” value in assay [1] (Table Q) worked out at 0.28 fold. In addition, the pKi in assay [2] (Table O) is 5.96; in assay [2] (Table Q), 5.96; in assay [3], 4.49; in assay [4] it was 5.16. Also, the “FS CDK1/CDK2” value amounted to 29 in assay [2] (setting [6]) and 29 in assay [2] (Table Q, enzymatic). Moreover, the “FS CDK4/CDK2” value in assay [2] (setting [7]) was 6.3; in assay [2] (Table Q, enzymatic), 6.3. Also, the “improvement … (Ki) over Comparator C” value in assay [2] (Table Q, in brackets after CDK2 Ki, Comparator C 0.032 μM) was 0.3 fold.
For the compound `O=C(NC1CCOCC1)O[C@@H]1CC[C@H](c2cc(Nc3cccnn3)n[nH]2)C1` [Example 3D, (1R,3S)-3-(3-(pyridazin-3-ylamino)-1H-pyrazol-5-yl)cyclopentyl (tetrahydro-2H-pyran-4-yl)carbamate], the pIC50 in assay [1] (Table O) is 5.10; in the assay with SKOV-3 (ATCC HTB-77) (SK-OV-3, Table O), < 4.70. Also, the “FS SKOV-3/OVISE” value in assay [1] (setting [5]) is >2.5. In addition, the negative-log Ki (pKi) is 7.21 in assay [2] (Table O), 5.85 in assay [3] and 5.64 in assay [4]. Besides, the “FS CDK1/CDK2” value in assay [2] (setting [6]) is reported as 23. Moreover, the “FS CDK4/CDK2” value in assay [2] (setting [7]) is recorded as 38.
For the compound `COc1ncc(Nc2cc([C@H]3CC[C@@H](OC(=O)NC(C)C)C3)[nH]n2)cn1` [Example 2FF, (1R,3S)-3-(3-((2-methoxypyrimidin-5-yl)amino)-1H-pyrazol-5-yl)cyclopentyl isopropylcarbamate], the pIC50 in assay [1] (Table O) was 5.92; in the assay on SKOV-3 (ATCC HTB-77) (SK-OV-3, Table O), < 4.70. Moreover, the “FS SKOV-3/OVISE” value in assay [1] (setting [5]) is listed as >17. In addition, the pKi in assay [2] (Table O) was 7.85; in assay [3], 6.49; in assay [4] it was 6.02. In assay [2] (setting [6]), the “FS CDK1/CDK2” value is reported as 23. Also, the “FS CDK4/CDK2” value in assay [2] (setting [7]) is reported as 68.
